In the supplement of paper PMC10307832:

Experiments:
Experiment in all cases: relative viability (nuclei count vs DMSO), 5 days (fraction); higher = more cells survive
NCI-H2087 = system: NCI-H2087
Procedure, shortened: (§1)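 Relative viability is defined as nuclei in treated wells over nuclei in vehicle wells. Duplicate plates were run and medians reported. Lung cancer cell lines in 1536-well plates were dosed by pin tool one day after seeding, with one drug or with a fixed anchor-drug dose plus five library-drug doses (not always all listed) in √10 steps, and nuclei were counted after 5 days.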

LOU-NH91 = system: LOU-NH91
Procedure, shortened: as §1

NCI-H727 = system: NCI-H727
Procedure, shortened: as §1

LCLC-97TM1 = system: LCLC-97TM1
Procedure, shortened: as §1

NCI-H1650 = system: NCI-H1650
Procedure, shortened: as §1

EKVX = system: EKVX
Procedure, shortened: as §1

NCI-H1792 = system: NCI-H1792
Procedure, shortened: as §1

LK-2 = system: LK-2
Procedure, shortened: as §1

NCI-H1563 = system: NCI-H1563
Procedure, shortened: as §1

HCC-827 = system: HCC-827
Procedure, shortened: as §1

LU99A = system: LU99A
Procedure, shortened: as §1

HCC-78 = system: HCC-78
Procedure, shortened: as §1

EPLC-272H = system: EPLC-272H
Procedure, shortened: as §1

BEN = system: BEN
Procedure, shortened: as §1

NCI-H358 = system: NCI-H358
Procedure, shortened: as §1

SW 1573 = system: SW 1573
Procedure, shortened: as §1

EMC-BAC-2 = system: EMC-BAC-2
Procedure, shortened: as §1

NCI-H2126 = system: NCI-H2126
Procedure, shortened: as §1

COR-L 105 = system: COR-L 105
Procedure, shortened: as §1

SK-MES-1 = system: SK-MES-1
Procedure, shortened: as §1

COCC1(CO)C(=O)C2CCN1CC2 (stereo unspecified) [PRIMA-1MET] + CS(=O)(=O)CCNCc1ccc(-c2ccc3ncnc(Nc4ccc(OCc5cccc(F)c5)c(Cl)c4)c3c2)o1 [Lapatinib] (partner 2 µM)
relative viability (NCI-H2087; first compound 0.2 µM): 0.848 | relative viability (NCI-H2087; first compound 0.6325 µM): 0.813 | relative viability (NCI-H2087; first compound 2 µM): 0.848 | relative viability (NCI-H2087; first compound 6.325 µM): 1.22 | relative viability (NCI-H2087; first compound 20 µM): 0.919 | relative viability (LOU-NH91; first compound 0.2 µM): 0.806 | relative viability (LOU-NH91; first compound 0.6325 µM): 0.715 | relative viability (LOU-NH91; first compound 2 µM): 0.656 | relative viability (LOU-NH91; first compound 6.325 µM): 0.692 | relative viability (LOU-NH91; first compound 20 µM): 0.496 | relative viability (NCI-H727; first compound 0.2 µM): 0.559 | relative viability (NCI-H727; first compound 0.6325 µM): 0.769 | relative viability (NCI-H727; first compound 2 µM): 0.503 | relative viability (NCI-H727; first compound 6.325 µM): 0.624 | relative viability (NCI-H727; first compound 20 µM): 0.113 | relative viability (LCLC-97TM1; first compound 0.2 µM): 0.776 | relative viability (LCLC-97TM1; first compound 2 µM): 0.998 | relative viability (LCLC-97TM1; first compound 6.325 µM): 1.08 | relative viability (LCLC-97TM1; first compound 20 µM): 0.148 | relative viability (NCI-H1650; first compound 0.2 µM): 0.84 | relative viability (NCI-H1650; first compound 0.6325 µM): 0.378 | relative viability (NCI-H1650; first compound 2 µM): 0.426 | relative viability (NCI-H1650; first compound 6.325 µM): 0.647 | relative viability (NCI-H1650; first compound 20 µM): 0.81 | relative viability (EKVX; first compound 0.2 µM): 0.244 | relative viability (EKVX; first compound 0.6325 µM): 0.202 | relative viability (EKVX; first compound 2 µM): 0.174 | relative viability (EKVX; first compound 6.325 µM): 0.213 | relative viability (EKVX; first compound 20 µM): 0.201 | relative viability (NCI-H1792; first compound 0.2 µM): 0.825 | relative viability (NCI-H1792; first compound 0.6325 µM): 0.769 | relative viability (NCI-H1792; first compound 2 µM): 0.868 | relative viability (NCI-H1792; first compound 6.325 µM): 0.963 | relative viability (NCI-H1792; first compound 20 µM): 0.807 | relative viability (LK-2; first compound 0.2 µM): 0.885 | relative viability (LK-2; first compound 0.6325 µM): 0.755 | relative viability (LK-2; first compound 2 µM): 0.6 | relative viability (LK-2; first compound 6.325 µM): 0.662 | relative viability (LK-2; first compound 20 µM): 0.18 | relative viability (NCI-H1563; first compound 0.2 µM): 0.991 | relative viability (NCI-H1563; first compound 0.6325 µM): 0.988 | relative viability (NCI-H1563; first compound 2 µM): 0.606 | relative viability (NCI-H1563; first compound 6.325 µM): 1.09 | relative viability (NCI-H1563; first compound 20 µM): 0.455 | relative viability (HCC-827; first compound 0.2 µM): 0.22 | relative viability (HCC-827; first compound 0.6325 µM): 0.164 | relative viability (HCC-827; first compound 2 µM): 0.198 | relative viability (HCC-827; first compound 6.325 µM): 0.184 | relative viability (HCC-827; first compound 20 µM): 0.198 | relative viability (LU99A; first compound 0.2 µM): 1.1 | relative viability (LU99A; first compound 0.6325 µM): 0.905 | relative viability (LU99A; first compound 2 µM): 0.955 | relative viability (LU99A; first compound 6.325 µM): 0.91 | relative viability (LU99A; first compound 20 µM): 0.0802 | relative viability (HCC-78; first compound 0.2 µM): 0.984 | relative viability (HCC-78; first compound 0.6325 µM): 0.539 | relative viability (HCC-78; first compound 6.325 µM): 0.78 | relative viability (HCC-78; first compound 20 µM): 0.686 | relative viability (EPLC-272H; first compound 0.2 µM): 0.871 | relative viability (EPLC-272H; first compound 0.6325 µM): 0.767 | relative viability (EPLC-272H; first compound 2 µM): 0.905 | relative viability (EPLC-272H; first compound 6.325 µM): 0.971 | relative viability (EPLC-272H; first compound 20 µM): 0.333 | relative viability (BEN; first compound 0.2 µM): 0.786 | relative viability (BEN; first compound 0.6325 µM): 0.774 | relative viability (BEN; first compound 6.325 µM): 0.82 | relative viability (BEN; first compound 20 µM): 0.687 | relative viability (NCI-H358; first compound 0.2 µM): 0.486 | relative viability (NCI-H358; first compound 0.6325 µM): 0.431 | relative viability (NCI-H358; first compound 6.325 µM): 0.471 | relative viability (NCI-H358; first compound 20 µM): 0.0399 | relative viability (SW 1573; first compound 0.2 µM): 1.26 | relative viability (SW 1573; first compound 0.6325 µM): 1.04 | relative viability (SW 1573; first compound 2 µM): 0.999 | relative viability (SW 1573; first compound 6.325 µM): 0.691 | relative viability (SW 1573; first compound 20 µM): 0.0423 | relative viability (EMC-BAC-2; first compound 0.2 µM): 0.918 | relative viability (EMC-BAC-2; first compound 0.6325 µM): 0.895 | relative viability (EMC-BAC-2; first compound 2 µM): 0.766 | relative viability (EMC-BAC-2; first compound 6.325 µM): 0.89 | relative viability (EMC-BAC-2; first compound 20 µM): 0.897 | relative viability (NCI-H2126; first compound 0.2 µM): 0.875 | relative viability (NCI-H2126; first compound 0.6325 µM): 0.757 | relative viability (NCI-H2126; first compound 2 µM): 0.733 | relative viability (NCI-H2126; first compound 6.325 µM): 0.815 | relative viability (NCI-H2126; first compound 20 µM): 0.773 | relative viability (COR-L 105; first compound 0.2 µM): 0.45 | relative viability (COR-L 105; first compound 0.6325 µM): 0.33 | relative viability (COR-L 105; first compound 2 µM): 0.312 | relative viability (COR-L 105; first compound 6.325 µM): 0.419 | relative viability (COR-L 105; first compound 20 µM): 0.22 | relative viability (SK-MES-1; first compound 0.2 µM): 0.571 | relative viability (SK-MES-1; first compound 0.6325 µM): 0.365 | relative viability (SK-MES-1; first compound 2 µM): 0.448 | relative viability (SK-MES-1; first compound 6.325 µM): 0.477 | relative viability (SK-MES-1; first compound 20 µM): 0.516
